Data from US12398155B2, “Thienopyridinone compounds” (Janssen Pharmaceutica NV, priority 2019, dated 2025).
Counter-ions that a name gives are not always drawn.

What was measured:
[1] = target: T1, human FGFR3 wild type enzyme (cytoplasmic domain) (Homo sapiens, UniProt P22607); assay: FGFR3 wild type mobility shift assay (enzymatic assay); type: biochemical; settings: 75 μM ATP, 50 minutes at 30° C.; read-out: FGFR3 wild type Caliper
T1 construct: human FGFR3 wild type enzyme (cytoplasmic domain, from Cama Biosciences); purchased Cama Biosciences (so in the source)
Description: FGFR3 Wild Type Mobility Shift Assay (Enzymatic Assay)
(§1) In a final reaction volume of 25 μL, 0.04 ng/μL human FGFR3 wild type enzyme (cytoplasmic domain, from Cama Biosciences) was incubated with 75 μM ATP, 1 μM FL-peptide 30 substrate and 250 nL of testing compound (1% DMSO final) in assay buffer (100 mM HEPES pH 7.4, 10 mM MgCl2, 0.003% Brij35, 1 mM DTT). After incubation for 50 minutes at 30° C. the reaction was stopped with 10 μL of 0.5M EDTA pH 8.0, and then 25 μL of reaction mixture was transferred to reading plate and measured on Caliper EZ reader II. The substrate-product conversion rate was used as raw data for normalization and concentration-response curve (10 dose points with 4× serial dilution, starting with 10 μM) was plotted using Prism to calculate IC50 (M), pIC50 (−log IC50) and HillSlope value.

[2] = tested on: NIH/3T3 cells transfected with control vector; assay: NIH/3T3 mock cell proliferation assay (counter assay, general toxicity); type: cell-based; settings: Mus musculus, NIH3T3; 72-hr incubation, CellTiter Glo; read-out: NIH/3T3 MOCK CTG
Description: NIH/3T3 Mock Cell Proliferation Assay
(§2) In day 1, 90 μL of cell suspension (NIH/3T3 cells transfected with the same control vector as in the above two proliferation assays) (total 30,000 cells per well in growth medium (DMEM containing 1% Glutamax, 10% FBS and 1% Pen/Strep)) was seeded in a 96-well plate and then incubated overnight at 37° C. and 5% CO2. In day 2, 10 μL of growth medium containing 10-fold stock solution of testing compound was added into cell cultures (9 dose points with 3× serial dilution, starting with 30 μM, 0.3% DMSO final). After 72-hr incubation at 37° C. and 5% CO2, in day 5 a volume of 50 μL CellTiter Glo (CTG) reagent was added into cell-containing 96-well plate and the plate was incubated at room temperature for 10 minutes before RLUs (relative light unit) were measured on a microplate reader with luminescence detection module. The RLU value was normalized to survival % and concentration-response curve was plotted using Prism to calculate IC50 (M), pIC50 (−log IC50) and HillSlope value.

[3] = target: T2, human FGFR3 V555M enzyme (cytoplasmic domain carrying V555M mutation) (Homo sapiens, UniProt P22607, V555M); assay: FGFR3 V555M mobility shift assay (enzymatic assay); type: biochemical; settings: 30 μM ATP, 45 minutes at 30° C.; read-out: FGFR3 V555M Caliper
T2 construct: cytoplasmic domain carrying V555M mutation, from Cama Biosciences; purchased Cama Biosciences (so in the source)
Description: FGFR3 V555M Mobility Shift Assay (Enzymatic Assay)
as §1, with “FGFR3 V555M” for “FGFR3 wild type”, “(cytoplasmic domain carrying V555M mutation,” for “(cytoplasmic domain,”, “with 30” for “with 75”, “for 45” for “for 50”

[4] = target: T3, NIH/3T3 cells overexpressing FGFR3 WT-TACC3 fusion protein (Homo sapiens, UniProt P22607); assay: NIH/3T3 FGFR3 WT-TACC3 cell proliferation assay; type: cell-based; settings: 72-hr incubation, CellTiter Glo; read-out: NIH/3T3 FGFR3 WT-TACC3 CTG
T3 construct: NIH/3T3 FGFR3 WT-TACC3 CTG; other: 72-hr incubation, CellTiter Glo; fused on or other part: C-terminal part of TACC3 (coiled-coil) fused behind the FGFR3 kinase domain; Q9Y6A5 (Transforming acidic coiled-coil-containing protein 3)
Description: NIH/3T3 FGFR3 WT-TACC3 Cell Proliferation Assay
as §2, with “cells overexpressing FGFR3 WT-TACC3 fusion protein)” for “cells transfected with the same control vector as in the above two proliferation assays)”, “with 4×” for “with 3×”, “with 10” for “with 30”, “μM, 0.1%” for “μM, 0.3%”

[5] = target: T4, NIH/3T3 cells overexpressing FGFR3 V555M-TACC3 fusion protein (Homo sapiens, UniProt P22607, V555M, cells depend on it); assay: NIH/3T3 FGFR3 V555M-TACC3 cell proliferation assay; type: cell-based; settings: 72-hr incubation, CellTiter Glo; read-out: NIH/3T3 FGFR3 V555M-TACC3 CTG
T4 construct: NIH/3T3 FGFR3 V555M-TACC3 CTG; other: 72-hr incubation, CellTiter Glo; fused on or other part: C-terminal part of TACC3 (coiled-coil) fused behind the FGFR3 kinase domain; Q9Y6A5 (Transforming acidic coiled-coil-containing protein 3)
Description: NIH/3T3 FGFR3 V555M-TACC3 Cell Proliferation Assay
as §2, with “cells overexpressing FGFR3 V555M-TACC3 fusion protein)” for “cells transfected with the same control vector as in the above two proliferation assays)”, “with 4×” for “with 3×”, “with 10” for “with 30”, “μM, 0.1%” for “μM, 0.3%”

T1 sequence (P22607 397-806 limits assumed): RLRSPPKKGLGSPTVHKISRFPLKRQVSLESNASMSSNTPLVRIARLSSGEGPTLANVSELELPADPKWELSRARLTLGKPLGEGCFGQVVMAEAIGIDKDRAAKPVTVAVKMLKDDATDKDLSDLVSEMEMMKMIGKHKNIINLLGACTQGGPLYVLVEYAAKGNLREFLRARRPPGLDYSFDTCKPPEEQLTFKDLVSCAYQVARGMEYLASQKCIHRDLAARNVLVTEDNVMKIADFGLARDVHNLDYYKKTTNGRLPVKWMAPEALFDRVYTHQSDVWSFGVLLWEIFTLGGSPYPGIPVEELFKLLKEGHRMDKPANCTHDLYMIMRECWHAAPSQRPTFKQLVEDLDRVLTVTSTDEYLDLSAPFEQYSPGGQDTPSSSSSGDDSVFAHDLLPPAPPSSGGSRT
T4 sequence (P22607 whole entry V555M, the tested form may be a part): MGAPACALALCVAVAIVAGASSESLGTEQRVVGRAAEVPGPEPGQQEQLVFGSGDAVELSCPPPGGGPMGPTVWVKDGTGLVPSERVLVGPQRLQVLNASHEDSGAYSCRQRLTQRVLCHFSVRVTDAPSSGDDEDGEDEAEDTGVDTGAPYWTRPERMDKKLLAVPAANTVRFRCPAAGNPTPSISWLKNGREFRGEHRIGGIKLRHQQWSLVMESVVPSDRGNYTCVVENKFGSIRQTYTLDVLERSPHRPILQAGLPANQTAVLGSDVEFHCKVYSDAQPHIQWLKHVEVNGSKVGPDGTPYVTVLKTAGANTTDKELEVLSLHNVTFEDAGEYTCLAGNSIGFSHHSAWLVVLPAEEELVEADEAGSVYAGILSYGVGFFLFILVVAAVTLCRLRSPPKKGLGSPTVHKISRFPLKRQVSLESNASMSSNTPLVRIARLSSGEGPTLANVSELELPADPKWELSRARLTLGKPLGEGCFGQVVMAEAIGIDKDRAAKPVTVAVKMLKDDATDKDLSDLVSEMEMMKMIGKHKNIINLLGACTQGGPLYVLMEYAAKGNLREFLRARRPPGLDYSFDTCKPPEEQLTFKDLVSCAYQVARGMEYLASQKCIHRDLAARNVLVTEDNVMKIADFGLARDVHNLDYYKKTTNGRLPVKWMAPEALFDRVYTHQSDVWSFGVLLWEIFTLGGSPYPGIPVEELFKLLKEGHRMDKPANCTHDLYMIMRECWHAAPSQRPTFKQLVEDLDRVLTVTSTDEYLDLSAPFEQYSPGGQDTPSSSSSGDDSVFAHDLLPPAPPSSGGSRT
T3 sequence (P22607 whole entry, change not shown, the tested form may be a part): as the sequence (P22607 whole entry V555M, the tested form may be a part) above, with M555V counted along it
T2 sequence (P22607 397-806 V555M limits assumed): as the sequence (P22607 397-806 limits assumed) above, with V159M counted along it

Row | SMILES | IC50 [1] | IC50 [2] | IC50 [3] | GI50 [4] | GI50 [5]
1 | COCC(Nc1c(-c2nc3cnc(N4C[C@@H](C)O[C@@H](C)C4)cc3[nH]2)c(=O)[nH]c2ccsc12)c1ncccn1 (single isomer, unassigned) [Compound 7, (S*)-6-(6-(cis-2,6-dimethylmorpholino)-1H-imidazo[4,5-c]pyridin-2-yl)-7-((2-methoxy-1-(pyrimidin-2-yl)ethyl)amino)thieno[3,2-b]pyridin-5(4H)-one] | 35.5 nM | 3050 nM | 2.34 nM | 486 nM | 284 nM
2 | COCC(Nc1c(-c2nc3cnc(N4C[C@@H](C)O[C@@H](C)C4)cc3[nH]2)c(=O)[nH]c2ccsc12)c1ncccn1 (single isomer, unassigned) [Compound 8, (R*)-6-(6-(cis-2,6-dimethylmorpholino)-1H-imidazo[4,5-c]pyridin-2-yl)-7-((2-methoxy-1-(pyrimidin-2-yl)ethyl)amino)thieno[3,2-b]pyridin-5(4H)-one] | 28.6 nM | – | 9.42 nM | – | –
3 | COC[C@@H](Nc1c(-c2nc3ccc(N4C[C@@H](C)O[C@@H](C)C4)nc3[nH]2)c(=O)[nH]c2ccsc12)c1ncccn1 (single isomer, unassigned) [Compound 10, (S*)-6-(5-(cis-2,6-dimethylmorpholino)-3H-imidazo[4,5-b]pyridin-2-yl)-7-(((S*)-2-methoxy-1-(pyrimidin-2-yl)ethyl)amino)thieno[3,2-b]pyridin-5(4H)-one] | 290 nM | – | 119 nM | – | –
4 | COC[C@H](Nc1c(-c2nc3ccc(N4C[C@@H](C)O[C@@H](C)C4)nc3[nH]2)c(=O)[nH]c2ccsc12)c1ncccn1 (single isomer, unassigned) [Compound 11, (R*)-6-(5-(cis-2,6-dimethylmorpholino)-3H-imidazo[4,5-b]pyridin-2-yl)-7-(((R*)-2-methoxy-1-(pyrimidin-2-yl)ethyl)amino)thieno[3,2-b]pyridin-5(4H)-one] | 8.73 nM | 3200 nM | 0.93 nM | 101 nM | 91.1 nM
5 | CC(C)[C@H](Nc1c(-c2nc3cnc(N4CCN(C)CC4)cc3[nH]2)c(=O)[nH]c2ccsc12)c1ncccn1 (single isomer, unassigned) [Compound 12, (S*)-7-((2-methyl-1-(pyrimidin-2-yl)propyl)amino)-6-(6-(4-methylpiperazin-1-yl)-1H-imidazo[4,5-c]pyridin-2-yl)thieno[3,2-b]pyridin-5(4H)-one 0.6 formate] | 0.24 nM | 482 nM | 0.33 nM | 3.82 nM | 5.02 nM
6 | C[C@@H](Nc1c(-c2nc3cnc(N4CCOCC4)cc3[nH]2)c(=O)[nH]c2ccsc12)c1ncccn1 [Compound 3, (R)-6-(6-Morpholino-1H-imidazo[4,5-c]pyridin-2-yl)-7-((1-(pyrimidin-2-yl)ethyl)amino)-thieno[3,2-b]pyridin-5(4H)-one] | 21.2 nM | – | 2.74 nM | – | –
7 | C[C@H](Nc1c(-c2nc3cnc(N4CCN(C)CC4)cc3[nH]2)c(=O)[nH]c2ccsc12)c1ncccn1 [Compound 5, (S)-6-(6-(4-methylpiperazin-1-yl)-1H-imidazo[4,5-c]pyridin-2-yl)-7-((1-(pyrimidin-2-yl)-ethyl)amino)thieno[3,2-b]pyridin-5(4H)-one] | 0.14 nM | 571 nM | 0.13 nM | 2.1 nM | 4.64 nM
